Experimental data taken from patent publication US11912668B2, “GCN2 and perk kinase inhibitors and methods of use thereof” (Deciphera Pharmaceuticals, LLC, priority 2020, dated 2024).

Assays:
[1] = tested on: phospho-GCN2 (Thr899) in HCT116 colorectal cancer cells; assay: HCT116 amino acid starved (-AA) phospho-GCN2 assay (Western blot); assay type: cell-based; conditions: Homo sapiens, HCT-116, 4 h, read-out: HCT116-AA pGCN2 Western Blot
In short: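 HCT116 cells switched to amino-acid-free EBSS (10% dialyzed FBS, 5.5 mM glucose, vitamins) with serial compound dilutions for 4 h at 37° C. Lysates Western blotted for phospho-GCN2 (Thr899), total GCN2, ATF4 and beta-actin; IC50 values derived from quantified bands.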

[2] = tested on: H929, RPMI8226, GA-10 and DoHH-2 cells; assay: Inhibition of multiple myeloma and B-cell lymphoma cell proliferation; assay type: cell-based; conditions: combination with SOC agents for multiple myeloma or B cell lymphomas
Experimental: H929, RPMI8226, GA-10, and DoHH-2 cells (catalog #CRL-9068) were obtained from the American Type Culture Collection (ATTC, Manassas, VA). H929 Cells were maintained in RPMI-1640 medium supplemented with 20% heat-inactivated fetal bovine serum (catalog #A3840002, ThermoFisher Scientific, Waltham, MA), 1% Penicillin/Streptomycin/L-Glutamine (catalog #10378016, ThermoFisher Scientific, Waltham, MA), and 0.05 mM 2-mercaptoethanol (catalog #21985-023, ThermoFisher Scientific, Waltham, MA). […]
For cell proliferation assay appropriate number of cells (Forty thousand cells for H929; Twenty thousand cells for RPMI8226, and GA-10; Eight thousand cells for DoHH-2) were seeded per well in 200 μL in respective medium were dispensed into a 96-well black clear bottom plate. […] Plates were read on a Synergy2 or equivalent reader (Biotek, Winooski VT) using an excitation of 540 nm and an emission of 600 nm. At the end of the incubation of DoHH-2, cell viability was determined using CellTiter-Glo® assay (Promega, Madison, WI). Luminescence was measured using EnVision MultiLabel Reader (PerkinElmer, Waltham, MA). Data was analyzed using GraphPad Prism software (GraphPad, San Diego, CA) to calculate IC50 values.

CNc1ncc2cc(-c3cccc(NS(=O)(=O)c4cc(Cl)cnc4OC)c3F)c(NC)nc2n1 [Compound 16]
IC50 [1]: ≤ 100 nM
inhibition of cell proliferation in combination with standard of care agents [2]: additivity or synergy
